From patent US20240108006A1, “PESTICIDALLY ACTIVE HETEROAROMATIC COMPOUNDS” (SYNGENTA CROP PROTECTION AG, priority 2021, published 2024)

Experiments:
Format in all cases: in vivo
Plutella xylostella = test: Example B8: Plutella xylostella (diamond back moth), artificial diet 24-well, eggs; details: 192 h, application rate of 200 ppm, 8 days after infestation, read-out: effect in at least one of the two categories (mortality or growth inhibition)
Procedure, shortened: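 Plutella eggs placed onto dried, compound-treated artificial diet, the aqueous test solutions diluted from 10,000 ppm DMSO stocks. Eight days post-infestation, larvae rated for mortality and growth inhibition relative to untreated controls.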

Spodoptera littoralis = test: Example B9: Spodoptera littoralis (Egyptian cotton leaf worm), cotton leaf discs, L1 larvae; details: foliar, 72 h, application rate of 200 ppm, 3 days after infestation, read-out: control in at least one of the three categories (mortality, anti-feedant effect, or growth inhibition)
Procedure, shortened: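 Five L1 larvae placed on sprayed, dried cotton leaf discs; spray solutions aqueous, from 10,000 ppm DMSO stocks. Control given when mortality, anti-feedant effect or growth inhibition exceeds untreated samples at 3 days.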

Chilo suppressalis = test: Example B1: Chilo suppressalis (striped rice stemborer), artificial diet, L2 larvae; details: 144 h, application rate of 200 ppm, 6 days after infestation, read-out: control in at least one of the three categories (mortality, anti-feedant effect, or growth inhibition)
Procedure, shortened: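 L2 larvae (6-8 per well) were placed on dried artificial diet that had been dosed with aqueous dilutions of 10,000 ppm DMSO stock solutions. After 6 days, control was credited if mortality, antifeedant effect or growth inhibition was higher than in untreated samples.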

Diabrotica balteata = test: Example B2: Diabrotica balteata (corn root worm), maize sprouts, L2 larvae; details: 96 h, application rate of 200 ppm, 4 days after infestation, read-out: control in at least one of the two categories (mortality or growth inhibition)
Protocol: Example B2: Diabrotica balteata (Corn Root Worm)
Maize sprouts placed onto an agar layer in 24-well microtiter plates were treated with aqueous test solutions prepared from 10,000 ppm DMSO stock solutions by spraying. After drying, the plates were infested with L2 larvae (6 to 10 per well). The samples were assessed for mortality and growth inhibition in comparison to untreated samples 4 days after infestation.
The following compounds gave an effect of at least 80% control in at least one of the two categories (mortality or growth inhibition) at an application rate of 200 ppm: […]

Myzus persicae = test: Example B7: Myzus persicae (green peach aphid), intrinsic activity, sucrose solution 24-well; details: 120 h, application rate of 12.5 ppm, 5 days after infestation, read-out: control (mortality)
Source text: Example B7: Myzus persicae (Green Peach Aphid). Intrinsic Activity
Test compounds prepared from 10,000 ppm DMSO stock solutions were applied by pipette into 24-well microtiter plates and mixed with sucrose solution. The plates were closed with a stretched Parafilm. A plastic stencil with 24 holes was placed onto the plate and infested pea seedlings were placed directly on the Parafilm. The infested plate was closed with a gel blotting paper and another plastic stencil and then turned upside down. The samples were assessed for mortality 5 days after infestation.
The following compounds gave an effect of at least 80% control at an application rate of 12.5 ppm: […]

C[C@H](NC(=O)Nc1cc(C(F)(F)F)c(Cl)cc1Br)c1ncnn1-c1cnccn1 [Example P279, 1-[2-bromo-4-chloro-5-(trifluoromethyl)phenyl]-3-[(1S)-1-(2-pyrazin-2-yl-1,2,4-triazol-3-yl)ethyl]urea]
≥ 80%: percent effect (mortality or growth inhibition) at 200 ppm (Plutella xylostella) | percent control (mortality, anti-feedant effect or growth inhibition) at 200 ppm (Spodoptera littoralis) | percent control (mortality, anti-feedant effect or growth inhibition) at 200 ppm (Chilo suppressalis) | percent control (mortality or growth inhibition) at 200 ppm (Diabrotica balteata)

C[C@H](NC(=O)Nc1cnc(C(F)(F)F)cc1Cl)c1ncnn1-c1ccc(C#N)cn1 [Example P257, 1-[4-chloro-6-(trifluoromethyl)-3-pyridyl]-3-[(1S)-1-[2-(5-cyano-2-pyridyl)-1,2,4-triazol-3-yl]ethyl]urea]
≥ 80%: percent effect (mortality or growth inhibition) at 200 ppm (Plutella xylostella) | percent control (mortality, anti-feedant effect or growth inhibition) at 200 ppm (Spodoptera littoralis) | percent control (mortality, anti-feedant effect or growth inhibition) at 200 ppm (Chilo suppressalis) | percent control (mortality or growth inhibition) at 200 ppm (Diabrotica balteata) | mortality at 12.5 ppm (Myzus persicae)

CC(NC(=O)Nc1ccc(Br)cc1OC(F)F)c1nccnc1-n1nccn1 (stereo not shown) [Example P261, 1-[4-bromo-2-(difluoromethoxy)phenyl]-3-[1-[3-(triazol-2-yl)pyrazin-2-yl]ethyl]urea]
≥ 80%: percent effect (mortality or growth inhibition) at 200 ppm (Plutella xylostella) | percent control (mortality, anti-feedant effect or growth inhibition) at 200 ppm (Spodoptera littoralis) | percent control (mortality, anti-feedant effect or growth inhibition) at 200 ppm (Chilo suppressalis) | percent control (mortality or growth inhibition) at 200 ppm (Diabrotica balteata)

C[C@H](NC(=O)Nc1cc(C(F)(F)F)c(Cl)cc1Cl)c1ncnn1-c1ncccn1 [Example P178, 1-[2,4-dichloro-5-(trifluoromethyl)phenyl]-3-[(1S)-1-(2-pyrimidin-2-yl-1,2,4-triazol-3-yl)ethyl]urea]
≥ 80%: percent effect (mortality or growth inhibition) at 200 ppm (Plutella xylostella) | percent control (mortality, anti-feedant effect or growth inhibition) at 200 ppm (Spodoptera littoralis) | percent control (mortality, anti-feedant effect or growth inhibition) at 200 ppm (Chilo suppressalis) | percent control (mortality or growth inhibition) at 200 ppm (Diabrotica balteata) | mortality at 12.5 ppm (Myzus persicae)

C[C@@H](NC(=O)Nc1cc(OC(F)(F)C(F)F)c(Cl)cc1Cl)c1nccnc1-c1ncccn1 [Example P136, 1-[2,4-dichloro-5-(1,1,2,2-tetrafluoroethoxy)phenyl]-3-[(1R)-1-(3-pyrimidin-2-ylpyrazin-2-yl)ethyl]urea]
≥ 80%: percent effect (mortality or growth inhibition) at 200 ppm (Plutella xylostella) | percent control (mortality, anti-feedant effect or growth inhibition) at 200 ppm (Chilo suppressalis) | percent control (mortality or growth inhibition) at 200 ppm (Diabrotica balteata)

CC(NC(=O)Nc1cc(OC(F)(F)C(F)F)c(Cl)cc1Cl)c1nccnc1-n1nccn1 (stereo not shown) [Example P258, 1-[2,4-dichloro-5-(1,1,2,2-tetrafluoroethoxy)phenyl]-3-[1-[3-(triazol-2-yl)pyrazin-2-yl]ethyl]urea]
≥ 80%: percent effect (mortality or growth inhibition) at 200 ppm (Plutella xylostella) | percent control (mortality, anti-feedant effect or growth inhibition) at 200 ppm (Chilo suppressalis) | percent control (mortality or growth inhibition) at 200 ppm (Diabrotica balteata)

C[C@H](NC(=O)Nc1cc(C(F)(F)F)c(Cl)cc1Cl)c1ncnn1-c1ncc(C#N)s1 [Example P140, 1-[(1S)-1-[2-(5-cyanothiazol-2-yl)-1,2,4-triazol-3-yl]ethyl]-3-[2,4-dichloro-5-(trifluoromethyl)phenyl]urea]
≥ 80%: percent effect (mortality or growth inhibition) at 200 ppm (Plutella xylostella) | percent control (mortality, anti-feedant effect or growth inhibition) at 200 ppm (Spodoptera littoralis) | percent control (mortality, anti-feedant effect or growth inhibition) at 200 ppm (Chilo suppressalis) | percent control (mortality or growth inhibition) at 200 ppm (Diabrotica balteata)

Cc1nc([C@H](C)NC(=O)Nc2cc(OC(F)(F)C(F)F)c(Cl)cc2Cl)n(-c2ncccn2)n1 [Example P276, 1-[2,4-dichloro-5-(1,1,2,2-tetrafluoroethoxy)phenyl]-3-[(1S)-1-(5-methyl-2-pyrimidin-2-yl-1,2,4-triazol-3-yl)ethyl]urea]
≥ 80%: percent effect (mortality or growth inhibition) at 200 ppm (Plutella xylostella) | percent control (mortality, anti-feedant effect or growth inhibition) at 200 ppm (Spodoptera littoralis) | percent control (mortality, anti-feedant effect or growth inhibition) at 200 ppm (Chilo suppressalis) | percent control (mortality or growth inhibition) at 200 ppm (Diabrotica balteata) | mortality at 12.5 ppm (Myzus persicae)

C[C@H](NC(=O)Nc1ccc(C(F)(F)F)cc1C(F)(F)F)c1ncnn1-c1ccc(C#N)cn1 [Example P13, 1-[2,4-bis(trifluoromethyl)phenyl]-3-[(1S)-1-[2-(5-cyano-2-pyridyl)-1,2,4-triazol-3-yl]ethyl]urea]
≥ 80%: percent effect (mortality or growth inhibition) at 200 ppm (Plutella xylostella) | percent control (mortality, anti-feedant effect or growth inhibition) at 200 ppm (Spodoptera littoralis) | percent control (mortality, anti-feedant effect or growth inhibition) at 200 ppm (Chilo suppressalis) | percent control (mortality or growth inhibition) at 200 ppm (Diabrotica balteata)

C[C@H](NC(=O)Nc1cc(C(F)(F)F)ccc1Cl)c1ncnn1-c1ncccn1 [Example P14, 1-[2-chloro-5-(trifluoromethyl)phenyl]-3-[(1S)-1-(2-pyrimidin-2-yl-1,2,4-triazol-3-yl)ethyl]urea]
≥ 80%: percent effect (mortality or growth inhibition) at 200 ppm (Plutella xylostella) | percent control (mortality, anti-feedant effect or growth inhibition) at 200 ppm (Spodoptera littoralis) | percent control (mortality, anti-feedant effect or growth inhibition) at 200 ppm (Chilo suppressalis) | percent control (mortality or growth inhibition) at 200 ppm (Diabrotica balteata)

C[C@H](NC(=O)Nc1cc(Cl)c(Cl)cc1Cl)c1ncnn1-c1ncccn1 [Example P43, 1-[(1S)-1-(2-pyrimidin-2-yl-1,2,4-triazol-3-yl)ethyl]-3-(2,4,5-trichlorophenyl)urea]
≥ 80%: percent effect (mortality or growth inhibition) at 200 ppm (Plutella xylostella) | percent control (mortality, anti-feedant effect or growth inhibition) at 200 ppm (Spodoptera littoralis) | percent control (mortality, anti-feedant effect or growth inhibition) at 200 ppm (Chilo suppressalis) | percent control (mortality or growth inhibition) at 200 ppm (Diabrotica balteata)

C[C@H](NC(=O)N1CCc2cc(C(F)(F)F)ccc21)c1ncnn1-c1ncccn1 [Example P57, N-[(1S)-1-(2-pyrimidin-2-yl-1,2,4-triazol-3-yl)ethyl]-5-(trifluoromethyl)indoline-1-carboxamide]
≥ 80%: percent effect (mortality or growth inhibition) at 200 ppm (Plutella xylostella) | percent control (mortality, anti-feedant effect or growth inhibition) at 200 ppm (Spodoptera littoralis) | percent control (mortality or growth inhibition) at 200 ppm (Diabrotica balteata) | mortality at 12.5 ppm (Myzus persicae)

C[C@H](NC(=O)Nc1cnc(C(F)(F)F)cc1Cl)c1nccnc1-c1ccc(C#N)cn1 [Example P250, 1-[4-chloro-6-(trifluoromethyl)-3-pyridyl]-3-[(1S)-1-[3-(5-cyano-2-pyridyl)pyrazin-2-yl]ethyl]urea]
≥ 80%: percent effect (mortality or growth inhibition) at 200 ppm (Plutella xylostella) | percent control (mortality, anti-feedant effect or growth inhibition) at 200 ppm (Spodoptera littoralis) | percent control (mortality, anti-feedant effect or growth inhibition) at 200 ppm (Chilo suppressalis) | mortality at 12.5 ppm (Myzus persicae)

C[C@H](NC(=O)Nc1cc(OC(F)(F)F)c(F)cc1Br)c1ncnn1-c1ncccn1 [Example P316, 1-[2-bromo-4-fluoro-5-(trifluoromethoxy)phenyl]-3-[(1S)-1-(2-pyrimidin-2-yl-1,2,4-triazol-3-yl)ethyl]urea]
≥ 80%: percent effect (mortality or growth inhibition) at 200 ppm (Plutella xylostella) | percent control (mortality, anti-feedant effect or growth inhibition) at 200 ppm (Spodoptera littoralis) | percent control (mortality, anti-feedant effect or growth inhibition) at 200 ppm (Chilo suppressalis) | mortality at 12.5 ppm (Myzus persicae)

C[C@H](NC(=O)Nc1cc(OC(F)(F)C(F)C(F)(F)F)c(Cl)cc1Cl)c1ncnn1-c1ncccn1 (stereo partly drawn) [Example P223, 1-[2,4-dichloro-5-(1,1,2,3,3,3-hexafluoropropoxy)phenyl]-3-[(1S)-1-(2-pyrimidin-2-yl-1,2,4-triazol-3-yl)ethyl]urea]
≥ 80%: percent effect (mortality or growth inhibition) at 200 ppm (Plutella xylostella) | percent control (mortality, anti-feedant effect or growth inhibition) at 200 ppm (Spodoptera littoralis) | percent control (mortality, anti-feedant effect or growth inhibition) at 200 ppm (Chilo suppressalis) | percent control (mortality or growth inhibition) at 200 ppm (Diabrotica balteata)

CC(NC(=O)Nc1ccc(Br)cc1OC(F)F)c1nccnc1-c1ncccn1 (stereo not shown) [Example P241, 1-[4-bromo-2-(difluoromethoxy)phenyl]-3-[1-(3-pyrimidin-2-ylpyrazin-2-yl)ethyl]urea]
≥ 80%: percent effect (mortality or growth inhibition) at 200 ppm (Plutella xylostella) | percent control (mortality, anti-feedant effect or growth inhibition) at 200 ppm (Spodoptera littoralis) | percent control (mortality, anti-feedant effect or growth inhibition) at 200 ppm (Chilo suppressalis) | mortality at 12.5 ppm (Myzus persicae)

C[C@H](NC(=O)Nc1cc(C(F)(F)F)cnc1Cl)c1ncnn1-c1ncccn1 [Example P127, 1-[2-chloro-5-(trifluoromethyl)-3-pyridyl]-3-[(1S)-1-(2-pyrimidin-2-yl-1,2,4-triazol-3-yl)ethyl]urea]
≥ 80%: percent effect (mortality or growth inhibition) at 200 ppm (Plutella xylostella) | percent control (mortality, anti-feedant effect or growth inhibition) at 200 ppm (Spodoptera littoralis) | percent control (mortality, anti-feedant effect or growth inhibition) at 200 ppm (Chilo suppressalis) | mortality at 12.5 ppm (Myzus persicae)

C[C@H](NC(=O)N(C)c1ccc(Cl)cc1Cl)c1ncnn1-c1ncccn1 [Example P114, 1-(2,4-dichlorophenyl)-1-methyl-3-[(1S)-1-(2-pyrimidin-2-yl-1,2,4-triazol-3-yl)ethyl]urea]
≥ 80%: percent effect (mortality or growth inhibition) at 200 ppm (Plutella xylostella) | percent control (mortality, anti-feedant effect or growth inhibition) at 200 ppm (Spodoptera littoralis) | percent control (mortality, anti-feedant effect or growth inhibition) at 200 ppm (Chilo suppressalis) | percent control (mortality or growth inhibition) at 200 ppm (Diabrotica balteata)
